Data: PMC9499463, “Potent Chlorambucil-Platinum(IV) Prodrugs” (International Journal of Molecular Sciences, 2022)
Values joined by “and” are separate entries in the source; they are usually repeats but may differ in a detail not shown here. Equal entries are not always repeated.

Experiments:
MIA pancreas = assay: MTT growth inhibition assay, 72 h; type: cell-based, human; settings: MTT, 72 h
A431 skin = assay: MTT growth inhibition assay, 72 h; type: cell-based, human
Du145 prostate = assay: MTT growth inhibition assay, 72 h; type: cell-based, human; settings: for GI50: MTT, 72 h
H460 lung = assay: MTT growth inhibition assay, 72 h; type: cell-based, human
[1] = Reduction experiments with ascorbic acid by 1H-NMR and 1D-195Pt-NMR; type: physicochemical; settings: 10 mM AsA, 10 mM PBS (~7.4 pH), D2O, 37 °C, 1H-NMR
Procedure: Intracellularly, a platinum(IV) complex is reduced into its platinum(II) congener and axial ligands in the presence of biological reducing agents such as AsA or glutathione. This report followed the reduction in PCLB, 5CLB, and 56CLB using ^1H-NMR and 1D-^195Pt-NMR spectroscopy. The method used for the reduction experiments was adapted from the literature with minor modifications. A total of 10 mM PBS (~7.4 pH) was selected as media to mimic physiological conditions, while 10 mM AsA was used as the biological reducing agent. Prior to the reduction experiments, a control was considered where each metal complex was dissolved with PBS in D2O. 1D-^195Pt-NMR was employed within the regions of −2800 and 400 ppm (30 min per region) at 37 °C. Typically, our platinum(II) complexes resonate within the −2800 ppm region (Figures S1–S3), while their platinum(IV) derivatives resonate around the 400 ppm region (Figures S4–S6). A control was required to ensure that the PBS would not interfere in the reduction process of the complexes. From the preliminary 1D-^195Pt-NMR spectra obtained (Figure 11), the state of all complexes was unchanged, and no sign of reduction was observed.
The reduction property of PCLB was monitored for 1 h by ^1H-NMR spectroscopy at 37 °C (Figure 12). Utilizing the resonances of the phenanthroline protons (H2 and H9; H4 and H7; H5 and H6; H3 and H8) from both platinum(II) and (IV) species as a qualitative measure of […], and considering that the resonances of these phenanthroline protons from both platinum(II) and (IV) species were almost equivalent, it is estimated that 40–50% reduction occurs within 10 min. […] A notable observation from the ^1H-NMR experiments is the movement of resonances, particularly the upfield shift of the phenanthroline protons and the downfield shift of the aromatic protons of CLB (Figure 12).
The reduction behavior of PCLB, 5CLB, and 56CLB was monitored using ^1H-NMR and 1D-^195Pt-NMR spectroscopy. A sequence of ^1H-NMR experiments was carried out for 1 h at 37 °C, followed by 1D-^195Pt-NMR within the regions of −2800 and 400 ppm. An amount of 10 mM PBS (~7.4 pH) was transferred to a vial and reduced to dryness through rotary evaporation. AsA (~1 mg) was combined with the metal complex (~5 mg) and transferred to the vial containing the dried PBS. A total of 600 µL of D2O was then added to the vial to dissolve the complex, AsA and the PBS together. Each reaction was followed at 37 °C until the complete reduction in the prodrugs.

[2] = Lipophilicity by HPLC (log kw); type: physicochemical; settings: chromatographic lipophilicity index, extrapolated to 100% d.i.H2O
Excerpt: For lipophilicity measurements, HPLC was utilized instead of the traditional shake-flask method, as described. A few studies have also reported the important and effective use of HPLC to measure the lipophilicity of compounds [66, 67]. Each complex was eluted under several isocratic ratios. A standard curve was then generated to calculate the log value of the capacity factor (log k) according to eqn (1). Following eqn (2), the percentage of organic solvent (CH3CN) in the mobile phase from each isocratic run was plotted against […] (Figure S34). Since log kw is the chromatographic lipophilicity index or measure of lipophilicity of the complex, a higher value corresponds to greater lipophilicity. Since PCLB, 5CLB, and 56CLB are structurally related, there were no significant variations in lipophilicity noted based on the calculated log kw values (Table 4). It is evident that PCLB is the least lipophilic of the group, with a calculated log kw value of 1.80, which is likely due to the absence of methyl groups in its phenanthroline system. 5CLB and 56CLB were the most lipophilic of the group with calculated log kw values of 1.90 and 1.87, respectively, and this is due to the presence of methyl substituents in their phenanthroline systems. […] Additionally, the chromatographic lipophilicity index of CLB was also measured using the abovementioned method, with a calculated log kw of 1.88, which is within the range observed for PCLB, 5CLB, and 56CLB. However, CLB was approximately 1-fold more lipophilic than PCLB. […] The order of increasing lipophilicity is […].
For lipophilicity measurements, analytical HPLC was utilized. Elution profiles were acquired on an Agilent Technologies 1260 Infinity instrument equipped with a Phenomenex Onyx^TM Monolithic C18-reverse phase column (100 × 4.6 mm, 5 µm pore size). The mobile phase consisted of solvents, A (0.06% TFA in d.i.H2O) and B (0.06% TFA in CH3CN/d.i.H2O (90:10)). Potassium iodide was used as an external dead volume marker to determine the dead time of the column. Retention times (TR) were measured at varying isocratic ratios ranging from 42% to 48% of solvent B at 1 mL/min. An injection volume of 10 µL was utilized. Capacity factors were determined according to Equation (1):(1) k=(TR−T0)/T0, where k is the capacity factor, TR is the retention time of the analyte, and T0 represents the dead time. A minimum of four different mobile compositions were used for each complex to calculate k. A linear plot was generated of log k against the concentration of CH3CN in the mobile phase to determine the value of log kw expressed by Equation (2):(2) logk=Sφ+logkw, where S is the slope, φ is the concentration of the CH3CN in the mobile phase and log kw represents the capacity factor of the complex in 100% d.i.H2O. […]

[3] = test system: ADDP ovarian (cisplatin-resistant A2780 clone); assay: MTT growth inhibition assay, 72 h; type: cell-based, human; settings: MTT, 72 h
MCF-7 breast = assay: MTT growth inhibition assay, 72 h; type: cell-based, human; settings: for GI50: MTT, 72 h

Structure (SMILES)	GI50 (MIA pancreas) [nM]	GI50 (A431 skin) [nM]	GI50 (Du145 prostate)	GI50 (H460 lung) [nM]	time to reach 50% reduction [1]	log kw [2]	GI50 [3] [nM]	fold by which the cisplatin prodrug incorporating two CLB ligands (Ma et al.) is less potent (MCF-7 breast; MCF-7 cell line) [fold]	GI50 (MCF-7 breast) [nM]	fold increase in potency compared to CLB (Du145 prostate; Du145 prostate cell line)	fold more potent than cisplatin (Du145 prostate; Du145 prostate cell line)	fold more potent than oxaliplatin-CLB prodrug of Qin et al. (MCF-7 breast) [fold]	fold more potent than cisplatin-CLB prodrug of Qin et al. (MCF-7 breast; MCF-7 cell line)	state of the complex at 1 h [1]	time at which the complex started reducing [1] [min]
Cc1cc2cccnc2c2ncccc12.N[C@H]1CCCC[C@@H]1N.O=C([O-])CCCc1ccc(N(CCCl)CCCl)cc1.O=[N+]([O-])[O-].O=[N+]([O-])[O-].[OH-].[Pt+4] [5CLB, [Pt^IV(5-methyl-1,10-phenanthroline)(S,S-DACH)(CLB)(OH)](NO3)2]	34 ± 0.005	90 ± 0.015	14 ± 0.004 nM	39 ± 0.013	approximately 5 min	1.90 and 1.87	26 ± 0.0064	12	180 ± 0.017						
Cc1c(C)c2cccnc2c2ncccc12.N[C@H]1CCCC[C@@H]1N.O=C([O-])CCCc1ccc(N(CCCl)CCCl)cc1.O=[N+]([O-])[O-].O=[N+]([O-])[O-].[OH-].[Pt+4] [56CLB, [Pt^IV(5,6-dimethyl-1,10-phenanthroline)(S,S-DACH)(CLB)(OH)](NO3)2]	11 ± 0.003	34 ± 0.0037	3 nM and 2.7 nM	13 ± 0.0056	approximately 5 min	1.87 and 1.90	10 ± 0.0028	35	63 ± 0.015	10,000 fold	at least 440 fold	~200	about 63 fold		
O=C(CCCc1ccc(N(CCCl)CCCl)cc1)[O][Pt-2]12([OH])([NH2+][C@H]3CCCC[C@@H]3[NH2+]1)[n+]1cccc3ccc4ccc[n+]2c4c31.O=[N+]([O-])[O-].O=[N+]([O-])[O-] [PCLB, [Pt^IV(1,10-phenanthroline)(S,S-DACH)(CLB)(OH)](NO3)2]	190 ± 0.032	510 ± 0.1	210 ± 0.12 nM	460 ± 0.063		1.80	290 ± 0.037	3	680 ± 0.043					almost reduced to its platinum(II) congener	5
